Data from article PMC8197367, “Comparative Antimicrobial Activity of Hp404 Peptide and Its Analogs against Acinetobacter baumannii” (International Journal of Molecular Sciences, 2021).
Where no end group is shown, it is not given here.

Columns and labels:
[1] = system: L. monocytogenes KCTC 3710; experiment: MIC, broth microdilution; type: cell-based, Listeria monocytogenes; conditions: two-fold broth microdilution, BHI, 2 × 10^5 CFU/mL, 37 °C, 18 h, read at 600 nm, three independent experiments
Experimental: (§1) The experiment was performed in triplicate.

[2] = system: S. typhimurium ATCC 14028; experiment: MIC, broth microdilution; type: cell-based, Salmonella typhimurium; conditions: two-fold broth microdilution, NB, 2 × 10^5 CFU/mL, 37 °C, 18 h, read at 600 nm, three independent experiments
Experimental: as §1

E. coli ATCC 25922 = experiment: MIC, broth microdilution; type: cell-based, Escherichia coli; conditions: two-fold broth microdilution, LB, 2 × 10^5 CFU/mL, 37 °C, 18 h, read at 600 nm, three independent experiments
Experimental: as §1

S. aureus ATCC 29213 = experiment: MIC, broth microdilution; type: cell-based, Staphylococcus aureus; conditions: two-fold broth microdilution, TSB, 2 × 10^5 CFU/mL, 37 °C, 18 h, read at 600 nm, three independent experiments
Experimental: as §1

S. aureus ATCC 25923 = experiment: MIC, broth microdilution; type: cell-based, Staphylococcus aureus; conditions: two-fold broth microdilution, TSB, 2 × 10^5 CFU/mL, 37 °C, 18 h, read at 600 nm, three independent experiments
Experimental: as §1

A. baumannii KCTC 2508 [3] = experiment: MIC, broth microdilution; type: cell-based, Acinetobacter baumannii; conditions: two-fold broth microdilution, NB, 2 × 10^5 CFU/mL, 37 °C, 18 h, read at 600 nm, no added salt, three independent experiments
Experimental: as §1

mouse red blood cells = experiment: Hemolytic assay; type: cell-based; conditions: 50 μM peptide (highest tested concentration); 8% mouse red blood cells in PBS, 1 h, 37 °C, absorbance 414 nm, vs 0.1% Triton X-100
Experimental: The hemolytic activity of the peptides against mouse erythrocytes was determined using red blood cells. Fresh mouse red blood cells were washed three times and resuspended in PBS to attain an 8% dilution. Peptides were serially diluted to a final concentration of 50 μM. Next, 100 µL peptide solution was added to 100 μL of mouse red blood cells, wrapped with aluminum foil and incubated for 1 h at 37 °C. The mixture was then centrifuged at 1500× g for 10 min. The supernatant was transferred into a new 96-well plate, and the absorbance of the supernatant was measured at 414 nm. As positive and negative controls, […] in mouse red blood cells were used. Hemolysis was evaluated according to the following equation:
Hemolysis (%) = [(Abs414 nm in the peptide solution − Abs414 nm in PBS)/(Abs414 nm in 0.1% Triton X-100 − Abs414 nm in PBS)] × 100.

P. aeruginosa ATCC 27853 = experiment: MIC, broth microdilution; type: cell-based; conditions: two-fold broth microdilution, NB, 2 × 10^5 CFU/mL, 37 °C, 18 h, read at 600 nm, three independent experiments
Experimental: as §1

K. pneumoniae KCTC 2208 = experiment: MIC, broth microdilution; type: cell-based; conditions: two-fold broth microdilution, NB, 2 × 10^5 CFU/mL, 37 °C, 18 h, read at 600 nm, three independent experiments
Experimental: as §1

HaCaT cells = conditions: 50 μM peptide, 24 h, MTT assay
Experimental: The cytotoxicity of the peptides against mammalian cells was calculated using the MTT assay. Human keratinocyte HaCaT cells were incubated in Dulbecco’s modified Eagle’s medium (DMEM) supplemented with 10% fetal bovine serum and 1% penicillin at 37 °C with 5% CO2. HaCaT cells were added at 2 × 10^5 cells/mL to DMEM supplemented with 10% fetal bovine serum and placed in 96-well plates. The plates were incubated overnight at 37 °C in a CO2 incubator. Peptides were serially diluted two-fold in DMEM, added to the cell cultures and incubated for 24 h at 37 °C. MTT solution (5 mg/mL) was added to each well and incubated for 1 h at 37 °C. The media was discarded, and the formazan crystals were dissolved in 100 μL dimethyl sulfoxide. The absorbance was measured using a Versa-Max microplate ELISA reader (Molecular Devices, Sunnyvale, CA, USA) at 570 and 650 nm. As a […], 0.1% Triton X-100 was used.

Calcein leakage assay [4] = conditions: PC:CH LUVs (10 μM) loaded with calcein; excitation 480 nm, emission 520 nm; various peptide concentrations
Experimental: (§4) Peptide-induced membrane permeability was monitored be measuring calcein dye emission in calcein-loaded LUVs [49]. We prepared the lipid mixture, and PC:CH (2:1, w/w) and PC:CH:SM liposomes (1:1:1, w/w) were prepared with 70 mM calcein buffer. A Sephadex G-50 column was used to separate calcein-loaded liposomes from free calcein dye. The LUVs (10 μM) were mixed with various concentrations of the peptide on a 96-well black plate. The fluorescence intensity was measured at excitation and emission wavelengths of 480 and 520 nm, respectively.

Calcein leakage assay [5] = conditions: PC:CH:SM (1:1:1, w/w) LUVs (10 μM) loaded with calcein; excitation 480 nm, emission 520 nm; various peptide concentrations
Experimental: as §4

B. cereus KCTC 1012 = experiment: MIC, broth microdilution; type: cell-based, Bacillus cereus; conditions: two-fold broth microdilution, TSB, 2 × 10^5 CFU/mL, 37 °C, 18 h, read at 600 nm, three independent experiments
Experimental: as §1

[6] = calcein-loaded LUVs, Figure 4c
Experimental: Peptide-induced membrane permeability was monitored be measuring calcein dye emission in calcein-loaded LUVs. We prepared the lipid mixture, and PC:CH (2:1, w/w) and PC:CH:SM liposomes (1:1:1, w/w) were prepared with 70 mM calcein buffer. A Sephadex G-50 column was used to separate calcein-loaded liposomes from free calcein dye. The LUVs (10 μM) were mixed with various concentrations of the peptide on a 96-well black plate. The fluorescence intensity was measured at excitation and emission wavelengths of 480 and 520 nm, respectively.

A. baumannii 907233 = experiment: microbe, parasite or virus in culture; conditions: A. baumannii 907233 isolated from patient; broth microdilution, 37 °C, 18 h; three independent experiments
Description: (§2) Staphylococcus aureus ATCC 25923, S. aureus ATCC 29213, P. aeruginosa ATCC 27853, Escherichia coli ATCC 25922 and Salmonella typhimurium ATCC 14028 strains were obtained from the American Type Culture Collection (ATCC, Manassas, VA, USA). Listeria monocytogenes KCTC 3710, Bacillus cereus KCTC 1012, K. pneumoniae KCTC 2208 and A. baumannii KCTC 2508 were obtained from the Korean Collection for Type Cultures (KRIBB, Daejeon, South Korea). Clinical isolates of A. baumannii strains were collected from Eulji University Hospital (Seoul, South Korea).
(§3) Hp1404 and its analog peptides activity against both gram-positive and gram-negative bacterial strains were tested using the broth microdilution method. Briefly, S. aureus (ATCC 25923, ATCC 29213) and B. cereus KCTC 1012 were cultured overnight at 37 °C in tryptic soy broth (TSB). P. aeruginosa ATCC 27853, K. pneumoniae KCTC 2208, A. baumannii KCTC 2508 and S. typhimurium ATCC 14028 were cultured overnight at 37 °C in nutrient broth (NB). E. coli ATCC 25922 was cultured overnight at 37 °C in luria bertani (LB). L. monocytogenes KCTC 3710 was cultured overnight at 37 °C in brain heart infusion (BHI). The cultures were diluted with fresh medium at a density of 2 × 10^5 CFU/mL. Peptides were serially diluted in sodium phosphate buffer (pH 7.2) to a final concentration of 25 μM. In a 96-well plate, 50-μL bacterial aliquots were mixed with 50 μL peptide solution. After incubation at 37 °C for 18 h, the MIC was determined using a plate reader at 600 nm. The experiment was performed in triplicate.

A. baumannii 719705 = experiment: microbe, parasite or virus in culture; conditions: A. baumannii 719705 isolated from patient; broth microdilution, 37 °C, 18 h; three independent experiments
Description: as §2, §3

A. baumannii #3 = experiment: microbe, parasite or virus in culture; conditions: A. baumannii #3 isolated from patient; broth microdilution, 37 °C, 18 h; three independent experiments
Description: as §2, §3

A. baumannii 409081 = experiment: microbe, parasite or virus in culture; conditions: A. baumannii 409081 isolated from patient; broth microdilution, 37 °C, 18 h; three independent experiments
Description: as §2, §3

A. baumannii #2 = experiment: microbe, parasite or virus in culture; conditions: A. baumannii #2 isolated from patient; broth microdilution, 37 °C, 18 h; three independent experiments
Description: as §2, §3

A. baumannii #4 = experiment: microbe, parasite or virus in culture; conditions: A. baumannii #4 isolated from patient; broth microdilution, 37 °C, 18 h; three independent experiments
Description: as §2, §3

A. baumannii KCTC 2508 [7] = conditions: NB supplemented with 150 mM NaCl, triplicate
Experimental: as §3
To determine whether antibacterial activity was affected by the presence of salts, experiments were conducted as previously reported. We determined the MICs of NB supplemented with 150 mM NaCl. MIC assays were performed as described above. The assay was performed in triplicate.

Substance | MIC [1] | MIC [2] | MIC (E. coli ATCC 25922) | MIC (S. aureus ATCC 29213) | MIC (S. aureus ATCC 25923) | MIC (A. baumannii KCTC 2508 [3]) | hemolytic activity (mouse red blood cells) | MIC (P. aeruginosa ATCC 27853) | MIC (K. pneumoniae KCTC 2208) | Cell viability (HaCaT cells) | MIC (B. cereus KCTC 1012) | MIC (A. baumannii 907233) | MIC (A. baumannii 719705) | MIC (A. baumannii #3) | MIC (A. baumannii 409081) | MIC (A. baumannii #2) | MIC (A. baumannii #4) | MIC in the presence of 150 mM NaCl (A. baumannii KCTC 2508 [7]) | other results
GILGKLWEGVKSIA-NH2 [Hp1404-A] | >25 µM | 25 µM | >25 µM | >25 µM | 12.5 µM | 25 µM | no hemolytic activity | >25 µM | >25 µM | 100% | >25 µM |  |  |  |  |  |  |  | calcein release (fluorescence intensity) (Calcein leakage assay [4]): did not release calcein; calcein release (fluorescence intensity) (Calcein leakage assay [5]): did not release calcein; calcein leakage fluorescence (bioimaging) [6]: no fluorescence was observed
GILGKLWEGVKSIF-NH2 [Hp1404, reference compound] | 3.13 µM | 3.13 µM | 12.5 µM | 6.25 µM | 3.13 µM | 3.13 µM | 49.2% | 12.5 µM | 12.5 µM | 72.3% | 12.5 µM | 3.13 µM | 3.13 µM | 3.13 µM | 3.13 µM | 3.13 µM | 3.13 µM | 6.25 µM | 
GILGKLWEGVKSII-NH2 [Hp1404-I] | 6.25 µM | 3.13 µM | 12.5 µM | 12.5 µM | 3.13 µM | 3.13 µM |  | 25 µM | 25 µM | 100% | 25 µM | 3.13 µM | 6.25 µM | 3.13 µM | 3.13 µM | 3.13 µM | 3.13 µM | 12.5 µM | 
GILGKLWEGVKSIK-NH2 [Hp1404-K] | >25 µM | 12.5 µM | >25 µM | >25 µM | 25 µM | 25 µM | no hemolytic activity | >25 µM | >25 µM |  | >25 µM |  |  |  |  |  |  |  | calcein release (fluorescence intensity) (Calcein leakage assay [4]): did not release calcein; calcein release (fluorescence intensity) (Calcein leakage assay [5]): did not release calcein; calcein leakage fluorescence (bioimaging) [6]: no fluorescence was observed
GILGKLWEGVKSIL-NH2 [Hp1404-L] | 3.13 µM | 1.56 µM | 12.5 µM | 6.25 µM | 1.56 µM | 3.13 µM | 45.8% | 12.5 µM | 12.5 µM | 62.4% | 12.5 µM | 3.13 µM | 3.13 µM | 3.13 µM | 3.13 µM | 3.13 µM | 3.13 µM | 6.25 µM | 
GILGKLWEGVKSIV-NH2 [Hp1404-V] | 25 µM | 6.25 µM | 25 µM | 25 µM | 6.25 µM | 6.25 µM | no hemolytic activity | >25 µM | >25 µM | 100% | 25 µM | 6.25 µM | 12.5 µM | 6.25 µM | 6.25 µM | 6.25 µM | 6.25 µM | 25 µM | 
GILGKLWEGVKSIW-NH2 [Hp1404-W] | 6.25 µM | 3.13 µM | 12.5 µM | 12.5 µM | 3.13 µM | 3.13 µM | 15.9% | 25 µM | 12.5 µM | 100% | 25 µM | 3.13 µM | 3.13 µM | 3.13 µM | 3.13 µM | 3.13 µM | 3.13 µM | 6.25 µM | 
